Entries after “also recorded” stand apart in the source; their conditions may differ.
Assay: Dynamic Vapor Sorption (DVS) moisture sorption with pre and post DVS XRPD
Type: physicochemical
Settings: after exposure to 80% relative humidity at 25° C. for 24 hours; hydrate
Procedure: Moisture sorption data were collected using a DVS Endeavour. A sample size of about 30 mg was used. The temperature was 25° C. The relative humidity (RH) was held to 80% for 24 hours. Mass was recorded at the beginning and end of the experiment. Stability and Hygroscopicity Features of Crystalline Compound 6a-I as shown by Pre and Post DVS XRPD Experiment: Crystalline Compound 6a-I was exposed to 80% relative humidity at 25° C. for 24 hours using a DVS Endeavor instrument. The mass was recorded at the beginning and end of the exposure. […] Dynamic Vapor Sorption (DVS): The crystalline Compound 6a-I can be characterized by a DVS moisture sorption profile.

O=S(CCOCc1ccccc1)[O][Ca][O]S(=O)CCOCc1ccccc1 (stereo not shown) [Compound 6a-I, calcium 2-(benzyloxy)ethane-1-sulfinate 4/3 hydrate]
crystalline form stability (XRPD pre DVS vs post DVS): no crystalline form change; also recorded: stable crystalline polymorph form
